Measurements taken from patent US20060210500A1, “Formulations” (MERCK PATENT GMBH, priority 2003, published 2006).

Experiments:
[1] = over the entire pH range; cited from earlier work
[2] = test system: Pseudomonas aeruginosa ATCC 9027; assay: challenge test, germ count by Agar plates method; format: cell-based; conditions: 8% aqueous suspension
Description: (§1) A standard procedure to measure the anti-microbial activity of substances was used (challenge tests). A suspension of test organisms (10^5 to 10^6 germs/ml) is inoculated into a recipient containing already the substance to be tested. Samples of the inoculated suspension are taken and the number of germs is measured thanks to the Agar plates method. Germ counts is performed at t=0, t=24 h after the inoculation, t=48 h after the inoculation, t=7 days after the inoculation, t=14 days after the inoculation.
(§2) Sterile water containing 8% w/w of treated and untreated carriers were each investigated.

[3] = test system: Candida albicans ATCC 10231; assay: challenge test, germ count by Agar plates method; format: cell-based; conditions: 8% aqueous suspension
Description: as §1, §2

[4] = test system: Staphylococcus aureus ATCC 6538; assay: challenge test, germ count by Agar plates method; format: cell-based; conditions: 8% aqueous suspension
Description: as §1, §2

Escheria coli ATCC8739 = assay: challenge test, germ count by Agar plates method; format: cell-based; conditions: 8% aqueous suspension
Description: as §1, §2

[5] = test system: Aspergillus niger ATCC 16404; assay: challenge test, germ count by Agar plates method; format: cell-based; conditions: 8% aqueous suspension
Description: as §1, §2

Compound: O=c1c(O)c(-c2ccc(O)c(O)c2)oc2cc(O)cc(O)c12 [Quercetin, 3,3′,4′,5,7-pentahydroxyflavone]
- antioxidant action [1]: the greatest activity amongst the structures investigated

Compound: silver oxide [0.02% Ag2O]
- Germs Number/ml after 24 h ([2]; 24 h after inoculation): 0 germs/ml
- Germs Number/ml after 48 h ([2]; 48 h after inoculation): 0 germs/ml
- Germs Number/ml after 7 d ([2]; 7 d after inoculation): 0 germs/ml
- Germs Number/ml after 14 d ([2]; 14 d after inoculation): 0 germs/ml
- Germs Number/ml after Start ([2]; t=0): 2.2 · 10^5 germs/ml
- Germs Number/ml after 24 h ([3]; 24 h after inoculation): 8.3 · 10^2 germs/ml
- Germs Number/ml after 48 h ([3]; 48 h after inoculation): 0 germs/ml
- Germs Number/ml after 7 d ([3]; 7 d after inoculation): 0 germs/ml
- Germs Number/ml after 14 d ([3]; 14 d after inoculation): 0 germs/ml
- Germs Number/ml after Start ([3]; t=0): 9.0 · 10^2 germs/ml
- Germs Number/ml after 24 h ([4]; 24 h after inoculation): 0 germs/ml
- Germs Number/ml after 48 h ([4]; 48 h after inoculation): 0 germs/ml
- Germs Number/ml after 14 d ([4]; 14 d after inoculation): 0 germs/ml
- Germs Number/ml after Start ([4]; t=0): 2.7 · 10^6 germs/ml
- Germs Number/ml after 24 h (Escheria coli ATCC8739; 24 h after inoculation): 0 germs/ml
- Germs Number/ml after 48 h (Escheria coli ATCC8739; 48 h after inoculation): 0 germs/ml
- Germs Number/ml after 7 d (Escheria coli ATCC8739; 7 d after inoculation): 0 germs/ml
- Germs Number/ml after 14 d (Escheria coli ATCC8739; 14 d after inoculation): 0 germs/ml
- Germs Number/ml after Start (Escheria coli ATCC8739; t=0): 2.0 · 10^6 germs/ml
- Germs Number/ml after 24 h ([5]; 24 h after inoculation): 3.5 · 10^5 germs/ml
- Germs Number/ml after 48 h ([5]; 48 h after inoculation): 1.6 · 10^5 germs/ml
- Germs Number/ml after 7 d ([5]; 7 d after inoculation): 1.0 · 10^5 germs/ml
- Germs Number/ml after 14 d ([5]; 14 d after inoculation): 2.2 · 10^4 germs/ml
- Germs Number/ml after Start ([5]; t=0): 4.5 · 10^5 germs/ml
